Source: the supplement of paper PMC10307832

Legend:
Experiment in all cases: relative viability (nuclei count vs DMSO), 5 days (fraction); higher = more cells survive
BAY61-3606 + Alpelisib = compound: COC1=C(C=C(C=C1)C2=CC3=NC=CN3C(=N2)NC4=C(C=CC=N4)C(=O)N)OC [BAY61-3606] + Cc1nc(NC(=O)N2CCC[C@H]2C(N)=O)sc1-c1ccnc(C(C)(C)C(F)(F)F)c1 [Alpelisib] (partner 2 µM)
Procedure, shortened: (§1)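 Values are medians from duplicate plates. Each reflects relative viability, defined as the nuclei count of treated wells over that of vehicle wells. Lung cancer cell lines in 1536-well plates were pin-tool dosed one day after seeding with one drug alone or with a fixed anchor-drug dose plus five library-drug doses (not always all listed) in √10 steps, then fixed, stained and imaged at 4× after 5 days.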

BAY61-3606 + Pemetrexed = compound: COC1=C(C=C(C=C1)C2=CC3=NC=CN3C(=N2)NC4=C(C=CC=N4)C(=O)N)OC [BAY61-3606] + Nc1nc2[nH]cc(CCc3ccc(C(=O)N[C@@H](CCC(=O)O)C(=O)O)cc3)c2c(=O)[nH]1 [Pemetrexed] (partner 0.2 µM)
Procedure, shortened: as §1

Doxorubicin + Lapatinib = compound: COc1cccc2c1C(=O)c1c(O)c3c(c(O)c1C2=O)C[C@@](O)(C(=O)CO)C[C@@H]3O[C@H]1C[C@H](N)[C@H](O)[C@H](C)O1 [Doxorubicin] + CS(=O)(=O)CCNCc1ccc(-c2ccc3ncnc(Nc4ccc(OCc5cccc(F)c5)c(Cl)c4)c3c2)o1 [Lapatinib] (partner 2 µM)
Procedure, shortened: as §1

Doxorubicin + Decitabine = compound: COc1cccc2c1C(=O)c1c(O)c3c(c(O)c1C2=O)C[C@@](O)(C(=O)CO)C[C@@H]3O[C@H]1C[C@H](N)[C@H](O)[C@H](C)O1 [Doxorubicin] + Nc1ncn([C@H]2C[C@H](O)[C@@H](CO)O2)c(=O)n1 [Decitabine] (partner 2 µM)
Procedure, shortened: as §1

UMC-11
relative viability (BAY61-3606 + Alpelisib; first compound 0.02 µM): 1.01 | relative viability (BAY61-3606 + Alpelisib; first compound 0.06325 µM): 1.09 | relative viability (BAY61-3606 + Alpelisib; first compound 0.2 µM): 1.08 | relative viability (BAY61-3606 + Alpelisib; first compound 0.6325 µM): 0.973 | relative viability (BAY61-3606 + Alpelisib; first compound 2 µM): 0.912 | relative viability (BAY61-3606 + Pemetrexed; first compound 0.02 µM): 0.813 | relative viability (BAY61-3606 + Pemetrexed; first compound 0.06325 µM): 0.795 | relative viability (BAY61-3606 + Pemetrexed; first compound 0.2 µM): 0.789 | relative viability (BAY61-3606 + Pemetrexed; first compound 0.6325 µM): 0.781 | relative viability (BAY61-3606 + Pemetrexed; first compound 2 µM): 0.612 | relative viability (Doxorubicin + Lapatinib; first compound 0.001 µM): 1.22 | relative viability (Doxorubicin + Lapatinib; first compound 0.003162 µM): 1.13 | relative viability (Doxorubicin + Lapatinib; first compound 0.01 µM): 0.906 | relative viability (Doxorubicin + Lapatinib; first compound 0.03162 µM): 0.514 | relative viability (Doxorubicin + Lapatinib; first compound 0.1 µM): 0.456 | relative viability (Doxorubicin + Decitabine; first compound 0.001 µM): 0.641 | relative viability (Doxorubicin + Decitabine; first compound 0.003162 µM): 0.497 | relative viability (Doxorubicin + Decitabine; first compound 0.01 µM): 0.619 | relative viability (Doxorubicin + Decitabine; first compound 0.03162 µM): 0.385 | relative viability (Doxorubicin + Decitabine; first compound 0.1 µM): 0.41
